Experimental data reported in patent publication US4594425A, “Heterocyclic compounds as antiallergic agents” (American Home Products Corporation, priority 1984, dated 1986).

Legend:
[1] = system: LTD4 induced bronchoconstriction; assay: in vivo inhibition of bronchospasm induced in guinea pigs by exogenously administered LTD4; set-up: species or system guinea pig (male Hartley); conditions: 50 mg/kg intraduodenal, 10 minutes before LTD4, average of 6 experiments
Procedure: The assay of this Example measures the in vivo ability of the compounds of the invention to inhibit the bronchospasm induced in guinea pigs by the exogenously administered leukotrienes C4 and/or D4. This assay is essentially a measure of the SRS-A antagonist properties of the compounds tested.
This assay is carried out as follows:
Male Hartley strain guinea pigs (350-600 g) are anesthetized with pentobarbital sodium (50 mg/kg, i.p.). The jugular vein is cannulated for injection of drugs and the carotid artery for monitoring blood prerssure. The trachea is cannulated for artificial ventilation by a miniature Starling pump and for indirect measurement of respiratory volume changes as described infra. Additional pentobarbital sodium (15 mg/kg, i.v.) is administered to arrest spontaneous respiration. Submaximal bronchoconstrictor responses are established in control animals by varying the dose-levels of leukotriene. Intravenous dose-levels of LTC4 range from 1 to 2 μg/kg and for LTD4 the range is from 0.3 to 1 μg/kg. The aerosol bronchoprovocation dose for LTC4 is generated from 1.6 μM solution and for LTD4 from a 2.0 μM solution.
Test drugs are administered either intravenously, by aerosol or orally at 1 or 10 minutes before induction of bronchospasm by administration of either LTC4 or LTD4 at the predetermined dose-levels. Aerosols of soluble drugs or leukotrienes are produced in-line for 10 seconds only by actuation of an ultrasonic nebulizer (Monaghan). Aerosolized drug dosage is expressed in terms of solution concentration and by a fixed aerosol exposure time (approximately 10 seconds). Control animals receive saline in place of drug.
Respiratory volume changes are determined by a calibrated piston whose travel is recorded, via a linear transducer, on a Beckman Dynograph recorder. Maximal bronchoconstrictor volume is determined by clamping off the trachea at the end of the experiment. Overflow volumes at 3 and 5 minutes are obtained from the recorded charts.
The overflow volume at 3 and 5 minutes is expressed as a percentage of maximal bronchoconstriction. Combined group values are used from each of these time intervals to determine the inhibitory effect of drugs. [formula] Students t-test for unpaired data is used to determine statistical significance. Dose response curves are generated and ED50 doses are interpolated from the regression lines.
Results for compounds of the invention in this assay, using LTD4 for induction of bronchospasm, are given below: […]

[2] = system: synthesis of LTB4 by rat glycogen-elicited polymorphonuclear leukocytes (lipoxygenase); assay: inhibition of LTB4 (5,12-diHETE) synthesis by rat glycogen-elicited polymorphonuclear leukocytes; format: cell-based, rat (Wistar); conditions: Leukocyte; rat PMN, A23187 10 μM, [14C] arachidonic acid, 37° C.; read-out: 50% Inhibitory Concentration (IC50) LTB4
Procedure: (§1) This is especially true with respect to 5,12-diHETE, which is also denoted as LTB4 [see Ford-Hitchinson, J. Roy. Soc. Med., 74, 831 (1981)]. The assay of this Example measures the ability of the compounds of the invention to inhibit the synthesis of 5-HETE and LTB4 by rat glycogen-elicited polymorphonuclear leukocytes.
(§2) The assay is carried out as follows:
(§3) Peritoneal PMN are obtained from female Wistar rats (150-250 g) that received an i.p. injection of 6% glycogen (10 ml). After 24 hours, rats are killed by CO2 asphyxiation and peritoneal cells are harvested by peritoneal lavage using Ca^++ and Mg^++ free Hanks' balanced salt solution (HBSS). The peritoneal exudate is centrifuged at 400 g for 10 minutes. After centrifugation, the lavaged fluid is removed and the cell pellet is resuspended in HBSS containing Ca^++ and Mg^++ and 10 mM L-cysteine at a concentration of 2×10^7 cells/ml. To 1 ml portions of cell suspension, test drugs or vehicle are added and incubated at 37° C. for 10 minutes. Following this preincubation, the calcium ionophore (10 μM), A23187, is added together with 0.5 μCi [^14 C] arachidonic acid and further incubated for 10 minutes. The reaction is stopped by the addition of ice cold water (3 ml) and acidifying to pH 3.5. Lipoxygenase products are then extracted twice into diethyl ether. The pooled ether extracts are evaporated to dryness under nitrogen and the residue is redissolved in a small volume of methanol and spotted on aluminum backed pre-coated thin layer chromatographic plates. The samples are then co-chromatographed with authentic reference 5-HETE, 12-HETE and 5,12-diHETE in the solvent system-hexane:ether:acetic acid (50:50:3). After chromatography, the areas associated with 5-HETE and 5,12-diHETE standards are identified by autoradiography, cut out and quantitated by liquid scintillation.
(§4) Results are expressed as % inhibition of [^14 C]5-HETE and [^14 C]LTB4 (5,12-HETE) synthesis. [formula]
(§5) Testing compounds of the invention in this assay and using the antioxident 3-amino-1-[m-(trifluoromethyl)phenyl]-2-pyrazoline (BW755C) as a standard, the following results are obtained.

[3] = system: synthesis of 5-HETE by rat glycogen-elicited polymorphonuclear leukocytes (lipoxygenase); assay: inhibition of 5-HETE synthesis by rat glycogen-elicited polymorphonuclear leukocytes; format: cell-based, rat (Wistar); conditions: Leukocyte; rat PMN, A23187 10 μM, [14C] arachidonic acid, 37° C.; read-out: 50% Inhibitory Concentration (IC50) 5-HETE
Procedure: as §1, §2, §3, §4, §5

[4] = system: ovalbumin induced bronchospasm mediated by endogenous products of the lipoxygenase oxidation of arachidonic acid; assay: in vivo inhibition of ovalbumin induced bronchospasm in sensitized guinea pigs (endogenous mediators); set-up: species or system guinea pig (male Hartley); conditions: 50 mg/kg intraduodenal, 10 minutes before ovalbumin challenge, average of 6 experiments

SMILES | % Inhibition (Statistical Average), Overflow Volume at 3 min. [1] | % Inhibition (Statistical Average), Overflow Volume at 5 min. [1] | IC50 [2] | IC50 [3] | % Inhibition (Statistical Average), Overflow Volume at 3 min. [4] | % Inhibition (Statistical Average), Overflow Volume at 5 min. [4]
COC(=O)CC(=O)Nc1cccc(OCc2nc3ccccc3n2C)c1 [Example 2d, 3-[[3-[(1-methyl-2-benzimidazolyl)methoxy]phenyl]amino]-3-oxopropanoic acid, methyl ester] | 62% | 59% |  |  |  | 
COC(=O)CCC(=O)N(O)c1cccc(OCc2nc3ccccc3s2)c1 [Example 6, 4-[[3-[(2-benzthiazolyl)methoxy]phenyl]hydroxylamino]-4-oxobutanoic acid, methyl ester] | 78% | 78% | 0.49 µM | 0.36 µM |  | 
COC(=O)CCC(=O)Nc1cccc(OCc2nc3ccccc3n2C)c1 [Example 2b, 4-[[3-[(1-methyl-2-benzimidazolyl)methoxy]phenyl]amino]-4-oxobutanoic acid, methyl ester] | 82% | 82% |  |  | 54% | 49%
COC(=O)CCC(=O)Nc1cccc(OCc2nc3ccccc3s2)c1 [Example 1, 4-[[3-[(2-benzthiazolyl)methoxy]phenyl]amino]-4-oxobutanoic acid, methyl ester] | 33% | 41% | 26 µM | 15.7 µM | 68% | 49%
COC(=O)CCC(=O)Nc1cccc(OCc2cc3ccccc3o2)c1 [Example 3, 4-[[3-[(2-benzofuranyl)methoxy]phenyl]amino]-4-oxobutanoic acid, methyl ester] |  |  | 27.3 µM | 17.9 µM |  | 
NC1=NN(c2cccc(C(F)(F)F)c2)CC1 [BW755C, 3-amino-1-[m-(trifluoromethyl)phenyl]-2-pyrazoline, reference compound] |  |  | 30 µM | 43 µM |  | 
COC(=O)CCC(=O)Nc1cccc(OCc2nc3ccccc3o2)c1 [Example 2a, 4-[[3-[(2-benzoxazolyl)methoxy]phenyl]amino]-4-oxobutanoic acid, methyl ester] |  |  | 65.5 µM | 69.7 µM |  | 
COC(=O)CC(=O)Nc1cccc(OCc2nc3ccccc3s2)c1 [Example 2c, 3-[[3-[(2-benzthiazolyl)methoxy]phenyl]amino]-3-oxopropanoic acid, methyl ester] | 77% | 76% |  |  |  | 
